Experimental data from patent publication US20240024273A1, “TOPICAL ADMINISTRATION OF 2-(DIETHYLAMINO)ETHYL 2-(4-ISOBUTYLPHENYL)PROPRIONATE FOR TREATMENT OF DISEASES” (TECHFIELDS PHARMA CO., LTD., priority 2020, published 2024).

Assays:
[1] = test system: osteoarthritis of the knee; assay: Second Phase 2 study: Subject's Global Assessment of Disease Status (SGADS); assay type: in vivo, human
From the text: (§1) 4.9.2. Secondary Efficacy Endpoints: • 1. Change from Baseline in the WOMAC (VAS) pain subscale score for the target knee at 2, 8, and 12 weeks of treatment; • 2. Change from Baseline in the WOMAC (VAS) stiffness subscale scores for the target knee and WOMAC (VAS) functional ability subscale scores at 2, 4, 8, and 12 weeks of treatment; • 3. Change from Baseline in the overall WOMAC (VAS) score at 2, 4, 8, and 12 weeks of treatment; • 4. Subject's global assessment of disease status of the target knee at 2, 4, 8, and 12 weeks of treatment; • 5. Subject's global assessment of response to therapy of the target knee at 2, 4, 8, and 12 weeks of treatment; • 6. Amount of rescue medication (acetaminophen) consumed per day for target knee pain.

[2] = test system: osteoarthritis of the knee; assay: Second Phase 2 study: WOMAC overall score; assay type: in vivo, human
From the text: This is a Phase 2, multicenter, randomized, double blind (within dose), Ibuprofen-placebo controlled, parallel group, dose range finding study to evaluate the efficacy, safety, and PK of 2-(diethylamino)ethyl 2-(4-isobutylphenyl)propionate spray in adult subjects with clinically symptomatic OA of the knee. For subjects with bilateral knee pain, both knees will be treated, but the most symptomatic knee (ie, the most painful knee as measured by the Western Ontario and McMaster University Osteoarthritis Index [WOMAC® 3.1] pain subscale score at Screening) will be designated as the target knee for efficacy analyses. For subjects with unilateral knee pain, only the symptomatic (target) knee will be treated.
The VAS version of the WOMAC will be used for the Primary and Secondary Efficacy Endpoints. Efficacy endpoints will be assessed at Screening and Baseline (Day 1) and at the Week 2, Week 4, Week 8, and Week 12/EOS visits.
as §1
The Secondary Efficacy Endpoints, change from Baseline in the WOMAC subscale scores for pain, stiffness, and functional ability, and overall WOMAC score at 2, 4, 8, and 12 weeks of treatment, will be analyzed using the same methods as for the Primary Efficacy Endpoint.

[3] = 17.5 mg/knee BID, Week 12, first 130 subjects
[4] = 4.375 mg/knee BID (n = 23), first 130 subjects
[5] = 8.75 mg/knee BID (n = 24), first 130 subjects
[6] = 17.5 mg/knee BID (n = 19), first 130 subjects
[7] = Week 12, 4.375 mg/knee BID (n = 23), first 130 subjects
[8] = Week 12, 8.75 mg/knee BID (n = 24), first 130 subjects
[9] = Week 12, 17.5 mg/knee BID (n = 19), first 130 subjects
[10] = all subjects, 4.375 mg/knee BID, n = 49, Week 12
[11] = all subjects, 8.75 mg/knee BID, n = 54, Week 12
[12] = all subjects, 17.5 mg/knee BID, n = 52, Week 12
[13] = oral, 3 × 400 mg (n = 20), first 130 subjects
[14] = Week 12, oral, 3 × 400 mg (n = 20), first 130 subjects
[15] = all subjects, Oral Ibuprofen 3 × 400 mg, n = 48, Week 12
[16] = all subjects, Oral Ibuprofen 3 × 400 mg, n = 48 vs. Placebo n = 48
[17] = oral 3×400 mg, first 130 subjects

CCN(CC)CCOC(=O)C(C)c1ccc(CC(C)C)cc1 (centres unmarked) [2-(diethylamino)ethyl 2-(4-isobutylphenyl)propionate]
SGADS, difference from oral ibuprofen [1, 3]: −14.2 mm
SGADS, difference from placebo [1, 3]: −18.6 mm
Subject’s Global Assessment of Disease Status Scores, Baseline (LS Mean) [1, 4]: 64.8 mm
Subject’s Global Assessment of Disease Status Scores, Baseline (LS Mean) [1, 5]: 67.2 mm
Subject’s Global Assessment of Disease Status Scores, Baseline (LS Mean) [1, 6]: 69.3 mm
Subject’s Global Assessment of Disease Status Scores, % of improvement from Oral Ibuprofen [1, 7]: −12.2%
Subject’s Global Assessment of Disease Status Scores, % of improvement from baseline [1, 7]: −50.6%
Subject’s Global Assessment of Disease Status Scores, % of improvement from placebo [1, 7]: −14.2%
Subject’s Global Assessment of Disease Status Scores, Changes from Baseline (LS Mean) [1, 7]: −32.8 mm
Subject’s Global Assessment of Disease Status Scores, Different from oral ibuprofen (LS Mean) [1, 7]: −3.9 mm
Subject’s Global Assessment of Disease Status Scores, Different from placebo (LS Mean) [1, 7]: −8.3 mm
Subject’s Global Assessment of Disease Status Scores, Week 12 (LS Mean) [1, 7]: 32.0 mm
Subject’s Global Assessment of Disease Status Scores, % of improvement from Oral Ibuprofen [1, 8]: −11.8%
Subject’s Global Assessment of Disease Status Scores, % of improvement from baseline [1, 8]: −50.7%
Subject’s Global Assessment of Disease Status Scores, % of improvement from placebo [1, 8]: −14.3%
Subject’s Global Assessment of Disease Status Scores, Changes from Baseline (LS Mean) [1, 8]: −34.1 mm
Subject’s Global Assessment of Disease Status Scores, Different from oral ibuprofen (LS Mean) [1, 8]: −5.2 mm
Subject’s Global Assessment of Disease Status Scores, Different from placebo (LS Mean) [1, 8]: −9.6 mm
Subject’s Global Assessment of Disease Status Scores, Week 12 (LS Mean) [1, 8]: 33.1 mm
Subject’s Global Assessment of Disease Status Scores, % of improvement from Oral Ibuprofen [1, 9]: −23.8%
Subject’s Global Assessment of Disease Status Scores, % of improvement from baseline [1, 9]: −62.2%
Subject’s Global Assessment of Disease Status Scores, % of improvement from placebo [1, 9]: −25.8%
Subject’s Global Assessment of Disease Status Scores, Changes from Baseline (LS Mean) [1, 9]: −43.1 mm
Subject’s Global Assessment of Disease Status Scores, Different from oral ibuprofen (LS Mean) [1, 9]: −14.2 mm
Subject’s Global Assessment of Disease Status Scores, Different from placebo (LS Mean) [1, 9]: −18.6 mm
Subject’s Global Assessment of Disease Status Scores, Week 12 (LS Mean) [1, 9]: 26.2 mm
Subject's Global Assessment of Disease Status Scores, % of improvement from Oral Ibuprofen [1, 10]: −5.3%
Subject's Global Assessment of Disease Status Scores, % of improvement from Placebo [1, 10]: −6.0%
Subject's Global Assessment of Disease Status Scores, % of improvement from baseline [1, 10]: −51.9%
Subject's Global Assessment of Disease Status Scores, Changes from Baseline (LS Mean) [1, 10]: −34.7 mm
Subject's Global Assessment of Disease Status Scores, Week 12 (LS Mean) [1, 10]: 32.1 mm
Subject's Global Assessment of Disease Status Scores, % of improvement from Oral Ibuprofen [1, 11]: −6.4%
Subject's Global Assessment of Disease Status Scores, % of improvement from Placebo [1, 11]: −7.1%
Subject's Global Assessment of Disease Status Scores, % of improvement from baseline [1, 11]: −53.0%
Subject's Global Assessment of Disease Status Scores, Changes from Baseline (LS Mean) [1, 11]: −36.6 mm
Subject's Global Assessment of Disease Status Scores, Different from oral ibuprofen (LS Mean) [1, 11]: −3.4 mm
Subject's Global Assessment of Disease Status Scores, Different from placebo (LS Mean) [1, 11]: −6.2 mm
Subject's Global Assessment of Disease Status Scores, Week 12 (LS Mean) [1, 11]: 32.4 mm
Subject's Global Assessment of Disease Status Scores, % of improvement from Oral Ibuprofen [1, 12]: −10.6%
Subject's Global Assessment of Disease Status Scores, % of improvement from Placebo [1, 12]: −11.3%
Subject's Global Assessment of Disease Status Scores, % of improvement from baseline [1, 12]: −57.2%
Subject's Global Assessment of Disease Status Scores, Changes from Baseline (LS Mean) [1, 12]: −38.3 mm
Subject's Global Assessment of Disease Status Scores, Different from placebo (LS Mean) [1, 12]: −7.9 mm
Subject's Global Assessment of Disease Status Scores, Week 12 (LS Mean) [1, 12]: 28.7 mm
WOMAC overall, difference from oral ibuprofen [2, 3]: −15.2 mm
WOMAC overall, difference from placebo [2, 3]: −18.2 mm
efficacy vs oral ibuprofen (3×400 mg/day) ([2]; 17.5 mg/knee BID, all subjects): higher efficacy than oral ibuprofen (3×400 mg/day), but not significantly
efficacy vs placebo ([2]; 17.5 mg/knee BID, all subjects): higher efficacy than placebo significantly
WOMAC Overall Scores, Baseline (LS Mean) [2, 4]: 59.3 mm
WOMAC Overall Scores, Baseline (LS Mean) [2, 5]: 60.7 mm
WOMAC Overall Scores, Baseline (LS Mean) [2, 6]: 63.4 mm
WOMAC Overall Scores, % of improvement from Oral Ibuprofen [2, 7]: −10.1%
WOMAC Overall Scores, % of improvement from baseline [2, 7]: −43.2%
WOMAC Overall Scores, % of improvement from placebo [2, 7]: −13.0%
WOMAC Overall Scores, Changes from Baseline (LS Mean) [2, 7]: −25.6 mm
WOMAC Overall Scores, Different from oral ibuprofen (LS Mean) [2, 7]: −4.1 mm
WOMAC Overall Scores, Different from placebo (LS Mean) [2, 7]: −7.1 mm
WOMAC Overall Scores, Week 12 (LS Mean) [2, 7]: 33.8 mm
WOMAC Overall Scores, % of improvement from Oral Ibuprofen [2, 8]: −11.8%
WOMAC Overall Scores, % of improvement from baseline [2, 8]: −45.1%
WOMAC Overall Scores, % of improvement from placebo [2, 8]: −14.9%
WOMAC Overall Scores, Changes from Baseline (LS Mean) [2, 8]: −27.4 mm
WOMAC Overall Scores, Different from oral ibuprofen (LS Mean) [2, 8]: −5.9 mm
WOMAC Overall Scores, Different from placebo (LS Mean) [2, 8]: −9.0 mm
WOMAC Overall Scores, Week 12 (LS Mean) [2, 8]: 33.3 mm
WOMAC Overall Scores, % of improvement from Oral Ibuprofen [2, 9]: −24.6%
WOMAC Overall Scores, % of improvement from baseline [2, 9]: −57.7%
WOMAC Overall Scores, % of improvement from placebo [2, 9]: −27.5%
WOMAC Overall Scores, Changes from Baseline (LS Mean) [2, 9]: −36.6 mm
WOMAC Overall Scores, Different from oral ibuprofen (LS Mean) [2, 9]: −15.2 mm
WOMAC Overall Scores, Different from placebo (LS Mean) [2, 9]: −18.2 mm
WOMAC Overall Scores, Week 12 (LS Mean) [2, 9]: 26.8 mm
WOMAC Overall Scores, % of improvement from Oral Ibuprofen [2, 10]: −1.5%
WOMAC Overall Scores, % of improvement from baseline [2, 10]: −42.8%
WOMAC Overall Scores, % of improvement from placebo [2, 10]: −6.6%
WOMAC Overall Scores, Changes from Baseline (LS Mean) [2, 10]: −25.4 mm
WOMAC Overall Scores, Week 12 (LS Mean) [2, 10]: 34.0 mm
WOMAC Overall Scores, % of improvement from Oral Ibuprofen [2, 11]: −4.6%
WOMAC Overall Scores, % of improvement from baseline [2, 11]: −45.9%
WOMAC Overall Scores, % of improvement from placebo [2, 11]: −9.7%
WOMAC Overall Scores, Changes from Baseline (LS Mean) [2, 11]: −27.7 mm
WOMAC Overall Scores, Different from oral ibuprofen (LS Mean) [2, 11]: −2.8 mm
WOMAC Overall Scores, Different from placebo (LS Mean) [2, 11]: −6.4 mm
WOMAC Overall Scores, Week 12 (LS Mean) [2, 11]: 32.7 mm
WOMAC Overall Scores, % of improvement from Oral Ibuprofen [2, 12]: −10.6%
WOMAC Overall Scores, % of improvement from baseline [2, 12]: −51.9%
WOMAC Overall Scores, % of improvement from placebo [2, 12]: −15.7%
WOMAC Overall Scores, Changes from Baseline (LS Mean) [2, 12]: −30.9 mm
WOMAC Overall Scores, Different from oral ibuprofen (LS Mean) [2, 12]: −6.0 mm
WOMAC Overall Scores, Different from placebo (LS Mean) [2, 12]: −9.6 mm
WOMAC Overall Scores, Week 12 (LS Mean) [2, 12]: 28.6 mm
average scores in all six subscales ([2]; high dose group, Week 12): below 30 mm

CC(C)Cc1ccc(C(C)C(=O)O)cc1 (centres unmarked) [Ibuprofen, 2-(4-isobutylphenyl)propionic acid, reference compound]
Subject’s Global Assessment of Disease Status Scores, Baseline (LS Mean) [1, 13]: 75.2 mm
Subject’s Global Assessment of Disease Status Scores, % of improvement from baseline [1, 14]: −38.4%
Subject’s Global Assessment of Disease Status Scores, % of improvement from placebo [1, 14]: −2.0%
Subject’s Global Assessment of Disease Status Scores, Changes from Baseline (LS Mean) [1, 14]: −28.9 mm
Subject’s Global Assessment of Disease Status Scores, Different from placebo (LS Mean) [1, 14]: −4.4 mm
Subject’s Global Assessment of Disease Status Scores, Week 12 (LS Mean) [1, 14]: 46.3 mm
Subject's Global Assessment of Disease Status Scores, % of improvement from Placebo [1, 15]: −0.7%
Subject's Global Assessment of Disease Status Scores, % of improvement from baseline [1, 15]: −46.6%
Subject's Global Assessment of Disease Status Scores, Changes from Baseline (LS Mean) [1, 15]: −33.3 mm
Subject's Global Assessment of Disease Status Scores, Week 12 (LS Mean) [1, 15]: 38.1 mm
SGADS, difference vs. Placebo [1, 16]: −2.9 mm
SGADS, difference from placebo [1, 17]: −4.2 mm
WOMAC Overall Scores, Baseline (LS Mean) [2, 13]: 65.0 mm
WOMAC Overall Scores, % of improvement from baseline [2, 14]: −33.1%
WOMAC Overall Scores, % of improvement from placebo [2, 14]: −2.9%
WOMAC Overall Scores, Changes from Baseline (LS Mean) [2, 14]: −21.5 mm
WOMAC Overall Scores, Different from placebo (LS Mean) [2, 14]: −3.1 mm
WOMAC Overall Scores, Week 12 (LS Mean) [2, 14]: 43.5 mm
WOMAC Overall Scores, % of improvement from baseline [2, 15]: −41.3%
WOMAC Overall Scores, % of improvement from placebo [2, 15]: −5.1%
WOMAC Overall Scores, Changes from Baseline (LS Mean) [2, 15]: −24.9 mm
WOMAC Overall Scores, Week 12 (LS Mean) [2, 15]: 35.4 mm
WOMAC Total, difference vs. Placebo [2, 16]: −3.6 mm
WOMAC overall, difference from placebo [2, 17]: −3.0 mm
